According to US10308643B2, “Heterocyclic compound” (Takeda Pharmaceutical Company Limited, priority 2015, dated 2019):
Structures can show the parent of a compound that is named as a salt.

Tests used:
Type in all cases: biochemical
HDAC6 enzyme = molecular target: T1, HDAC6 enzyme (Homo sapiens, UniProt Q9UBN7); experiment: HDAC1/6 Enzyme Inhibitory Assay (HDAC-Glo I/II Assay kit), HDAC6; conditions: 1 μM test compound, wells without enzyme = 100% inhibition; for inhibition at 1 µM: read-out: HDAC6 inhibitory rate (%) (1 μM)
T1 construct: transducing full length HDAC1 and HDAC6 genes into Sf-9 insect cells; GST; purchased SignalChem; host or cells: Sf-9 insect cells
T1 sequence (Q9UBN7 1-1215): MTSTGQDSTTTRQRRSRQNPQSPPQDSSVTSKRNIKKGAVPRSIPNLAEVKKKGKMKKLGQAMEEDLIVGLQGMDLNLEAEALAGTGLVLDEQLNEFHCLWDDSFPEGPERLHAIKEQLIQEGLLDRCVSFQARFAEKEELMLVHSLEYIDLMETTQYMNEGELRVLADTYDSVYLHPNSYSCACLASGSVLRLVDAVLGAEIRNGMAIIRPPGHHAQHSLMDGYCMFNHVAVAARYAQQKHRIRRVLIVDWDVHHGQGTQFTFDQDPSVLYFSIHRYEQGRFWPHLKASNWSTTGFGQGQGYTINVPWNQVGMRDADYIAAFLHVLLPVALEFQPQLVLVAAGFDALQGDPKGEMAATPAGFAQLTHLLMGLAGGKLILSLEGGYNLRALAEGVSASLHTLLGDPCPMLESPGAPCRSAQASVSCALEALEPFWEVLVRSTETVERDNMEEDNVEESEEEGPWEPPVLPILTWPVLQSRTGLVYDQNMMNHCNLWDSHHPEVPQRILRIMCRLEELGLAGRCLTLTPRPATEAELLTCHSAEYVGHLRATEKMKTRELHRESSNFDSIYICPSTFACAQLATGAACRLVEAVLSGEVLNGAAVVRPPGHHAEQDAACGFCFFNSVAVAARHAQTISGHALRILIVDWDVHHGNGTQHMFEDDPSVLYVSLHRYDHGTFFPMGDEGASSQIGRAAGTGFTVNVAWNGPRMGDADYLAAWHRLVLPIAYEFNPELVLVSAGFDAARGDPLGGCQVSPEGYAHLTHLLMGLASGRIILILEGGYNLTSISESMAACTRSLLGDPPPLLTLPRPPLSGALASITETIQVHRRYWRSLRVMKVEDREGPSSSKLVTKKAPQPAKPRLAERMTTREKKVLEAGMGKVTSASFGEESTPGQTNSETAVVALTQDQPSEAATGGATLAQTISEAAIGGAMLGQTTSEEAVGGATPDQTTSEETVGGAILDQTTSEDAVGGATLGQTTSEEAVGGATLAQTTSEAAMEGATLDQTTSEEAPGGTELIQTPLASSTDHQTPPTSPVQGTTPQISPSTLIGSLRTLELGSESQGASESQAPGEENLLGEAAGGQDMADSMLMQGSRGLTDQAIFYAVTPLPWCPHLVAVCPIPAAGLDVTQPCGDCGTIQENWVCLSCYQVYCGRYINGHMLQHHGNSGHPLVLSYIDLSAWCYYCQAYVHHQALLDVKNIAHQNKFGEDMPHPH
In short: (§1)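 Luminescence readout (HDAC-Glo I/II) after 20 min RT reaction of GST-purified full-length HDAC1 or HDAC6 (Sf-9 expressed) with substrate-developer; enzyme and compound preincubated 60 min RT; buffer 24 mM Tris-HCl pH 7.5, 0.6 mM glutathione, 0.01% Tween-20; no-enzyme wells = 100% inhibition.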

HDAC1 enzyme = molecular target: T2, HDAC1 enzyme (Homo sapiens, UniProt Q13547); experiment: HDAC1/6 Enzyme Inhibitory Assay (HDAC-Glo I/II Assay kit), HDAC1; conditions: 1 μM test compound, wells without enzyme = 100% inhibition; for inhibition at 1 µM: read-out: HDAC1 inhibitory rate (%) (1 μM)
T2 construct: transducing full length HDAC1 and HDAC6 genes into Sf-9 insect cells; GST; purchased SignalChem; host or cells: Sf-9 insect cells
T2 sequence (Q13547 whole entry): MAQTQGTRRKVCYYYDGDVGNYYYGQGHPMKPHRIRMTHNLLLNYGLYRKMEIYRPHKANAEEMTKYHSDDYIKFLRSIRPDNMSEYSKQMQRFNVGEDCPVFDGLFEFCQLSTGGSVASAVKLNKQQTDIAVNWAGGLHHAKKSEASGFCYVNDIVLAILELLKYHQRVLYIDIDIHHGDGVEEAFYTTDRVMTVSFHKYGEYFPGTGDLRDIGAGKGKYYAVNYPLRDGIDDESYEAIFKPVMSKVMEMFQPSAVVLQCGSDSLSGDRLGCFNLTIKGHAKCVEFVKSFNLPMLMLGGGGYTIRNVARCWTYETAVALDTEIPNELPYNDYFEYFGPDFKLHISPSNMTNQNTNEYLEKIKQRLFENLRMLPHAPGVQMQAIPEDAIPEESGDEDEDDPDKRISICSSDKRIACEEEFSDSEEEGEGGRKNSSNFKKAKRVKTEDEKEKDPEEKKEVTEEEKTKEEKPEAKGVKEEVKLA
In short: as §1

HDAC9 enzyme = molecular target: T3, HDAC9 enzyme (Homo sapiens, UniProt Q9UKV0); experiment: HDAC9 Enzyme Inhibitory Assay (HDAC-Glo class IIa); conditions: 1 μM test compound, wells without enzyme = 100% inhibition; for inhibition at 1 µM: read-out: HDAC9 inhibitory rate (%) (1 μM)
T3 construct: transducing full length HDAC9 gene into Sf-9 insect cells; made in house; host or cells: Sf-9 insect cells
T3 sequence (Q9UKV0 whole entry, species assumed): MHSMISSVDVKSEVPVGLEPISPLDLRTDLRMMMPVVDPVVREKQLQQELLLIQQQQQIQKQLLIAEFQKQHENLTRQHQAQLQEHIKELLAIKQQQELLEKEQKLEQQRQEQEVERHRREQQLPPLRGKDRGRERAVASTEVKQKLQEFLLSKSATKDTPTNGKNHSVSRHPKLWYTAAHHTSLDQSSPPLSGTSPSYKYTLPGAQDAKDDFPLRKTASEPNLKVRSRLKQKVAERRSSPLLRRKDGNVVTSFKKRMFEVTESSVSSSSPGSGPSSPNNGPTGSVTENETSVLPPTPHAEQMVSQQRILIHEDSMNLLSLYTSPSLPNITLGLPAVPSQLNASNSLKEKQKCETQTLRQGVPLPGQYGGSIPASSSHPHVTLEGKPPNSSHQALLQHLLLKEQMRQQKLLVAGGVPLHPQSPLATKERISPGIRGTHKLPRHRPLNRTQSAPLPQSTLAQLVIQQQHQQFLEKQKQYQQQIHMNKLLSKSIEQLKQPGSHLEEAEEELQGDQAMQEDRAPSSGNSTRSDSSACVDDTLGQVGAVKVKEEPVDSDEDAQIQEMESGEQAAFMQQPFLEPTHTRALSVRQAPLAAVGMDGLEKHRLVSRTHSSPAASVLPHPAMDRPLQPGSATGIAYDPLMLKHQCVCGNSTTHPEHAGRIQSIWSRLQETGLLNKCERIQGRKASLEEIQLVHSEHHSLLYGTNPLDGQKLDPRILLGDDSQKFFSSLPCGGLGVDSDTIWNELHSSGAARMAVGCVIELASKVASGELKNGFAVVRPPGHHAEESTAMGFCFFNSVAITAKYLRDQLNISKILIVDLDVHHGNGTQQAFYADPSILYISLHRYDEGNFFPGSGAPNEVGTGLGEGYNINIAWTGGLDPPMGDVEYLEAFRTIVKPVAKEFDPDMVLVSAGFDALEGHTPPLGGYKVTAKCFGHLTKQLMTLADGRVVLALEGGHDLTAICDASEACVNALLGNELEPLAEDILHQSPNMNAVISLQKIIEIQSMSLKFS
In short: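 Full-length human HDAC9 from Sf-9 cells, Ni-NTA purified, preincubated with compound for 60 min at room temperature in Tris-HCl pH 7.5 buffer (MgCl2, KCl, NaCl, glutathione, Tween-20). HDAC-Glo class IIa substrate-developer added; luminescence read after 20 min, with no-enzyme wells defining 100% inhibition.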

CC(CO)(CCl)C(=O)N[C@@H]1CCCC[C@H]1N1Cc2ccc(-c3noc(C(F)(F)F)n3)cc2C1=O (relative stereo) [Example 204, 3-chloro-2-(hydroxymethyl)-2-methyl-N-(trans-2-(1-oxo-6-(5-(trifluoromethyl)-1,2,4-oxadiazol-3-yl)-1,3-dihydro-2H-isoindol-2-yl)cyclohexyl)propanamide]
HDAC6 inhibitory rate (%) (1 μM) (HDAC6 enzyme): 99%
HDAC1 inhibitory rate (%) (1 μM) (HDAC1 enzyme): 7%
HDAC9 inhibitory rate (%) (1 μM) (HDAC9 enzyme): 71%

O=C(N[C@@H]1CCOC[C@@H]1N1Cc2ccc(-c3noc(C(F)(F)F)n3)cc2C1=O)C1CC1(F)F (single isomer, unassigned) [Example 211, (1R) or (1S)-2,2-difluoro-N-((3R,4R)-3-(1-oxo-6-(5-(trifluoromethyl)-1,2,4-oxadiazol-3-yl)-1,3-dihydro-2H-isoindol-2-yl)tetrahydro-2H-pyran-4-yl)cyclopropanecarboxamide]
HDAC6 inhibitory rate (%) (1 μM) (HDAC6 enzyme): 43%
HDAC1 inhibitory rate (%) (1 μM) (HDAC1 enzyme): −1%
HDAC9 inhibitory rate (%) (1 μM) (HDAC9 enzyme): 33%

O=C(N[C@@H]1CCOC[C@@H]1N1Cc2ccc(-c3noc(C(F)(F)F)n3)cc2C1=O)C1CC1(F)F (single isomer, unassigned) [Example 212, (1R) or (1S)-2,2-difluoro-N-((3R,4R)-3-(1-oxo-6-(5-(trifluoromethyl)-1,2,4-oxadiazol-3-yl)-1,3-dihydro-2H-isoindol-2-yl)tetrahydro-2H-pyran-4-yl)cyclopropanecarboxamide]
HDAC6 inhibitory rate (%) (1 μM) (HDAC6 enzyme): 82%
HDAC1 inhibitory rate (%) (1 μM) (HDAC1 enzyme): 12%
HDAC9 inhibitory rate (%) (1 μM) (HDAC9 enzyme): 58%

O=C(N[C@H]1CCOC[C@H]1N1Cc2ccc(-c3noc(C(F)(F)F)n3)cc2C1=O)C1CC1(F)F (single isomer, unassigned) [Example 213, (1R) or (1S)-2,2-difluoro-N-((3S,4S)-3-(1-oxo-6-(5-(trifluoromethyl)-1,2,4-oxadiazol-3-yl)-1,3-dihydro-2H-isoindol-2-yl)tetrahydro-2H-pyran-4-yl)cyclopropanecarboxamide]
inhibition at 1 µM (HDAC6 enzyme): 96%
HDAC1 inhibitory rate (%) (1 μM) (HDAC1 enzyme): 31%
inhibition at 1 µM (HDAC9 enzyme): 77%

O=C(N[C@H]1CCOC[C@H]1N1Cc2ccc(-c3noc(C(F)(F)F)n3)cc2C1=O)C1CC1(F)F (single isomer, unassigned) [Example 214, (1R) or (1S)-2,2-difluoro-N-((3S,4S)-3-(1-oxo-6-(5-(trifluoromethyl)-1,2,4-oxadiazol-3-yl)-1,3-dihydro-2H-isoindol-2-yl)tetrahydro-2H-pyran-4-yl)cyclopropanecarboxamide]
HDAC6 inhibitory rate (%) (1 μM) (HDAC6 enzyme): 98%
HDAC1 inhibitory rate (%) (1 μM) (HDAC1 enzyme): 68%
HDAC9 inhibitory rate (%) (1 μM) (HDAC9 enzyme): 97%

O=C1c2cc(-c3noc(C(F)(F)F)n3)ccc2CN1C1CCNC[C@@H]1c1ccc(Cl)cc1 (stereo in doubt) [Example 51, 2-(trans-3-(4-chlorophenyl)piperidin-4-yl)-6-(5-(trifluoromethyl)-1,2,4-oxadiazol-3-yl)isoindolin-1-one]
inhibition at 1 µM (HDAC6 enzyme): 98%
inhibition at 1 µM (HDAC1 enzyme): 94%
inhibition at 1 µM (HDAC9 enzyme): 99%

O=C1c2cc(-c3noc(C(F)(F)F)n3)ccc2CN1C1CCNC[C@@H]1c1cc(Cl)cc(Cl)c1 (stereo in doubt) [Example 58, 2-(trans-3-(3,5-dichlorophenyl)piperidin-4-yl)-6-(5-(trifluoromethyl)-1,2,4-oxadiazol-3-yl)isoindolin-1-one]
inhibition at 1 µM (HDAC6 enzyme): 98%
inhibition at 1 µM (HDAC1 enzyme): 99%
inhibition at 1 µM (HDAC9 enzyme): 99%

O=C1CC(C(=O)N[C@@H]2CCCCC2N2Cc3ccc(-c4noc(C(F)(F)F)n4)cc3C2=O)CN1 (stereo in doubt) [Example 131, (3R)-5-oxo-N-((1R,2R)-2-(1-oxo-6-(5-(trifluoromethyl)-1,2,4-oxadiazol-3-yl)-1,3-dihydro-2H-isoindol-2-yl)cyclohexyl)pyrrolidine-3-carboxamide]
inhibition at 1 µM (HDAC6 enzyme): 88%
inhibition at 1 µM (HDAC1 enzyme): 0%
inhibition at 1 µM (HDAC9 enzyme): 31%

CC(C)(C)OC(=O)N1CC[C@@H](N2Cc3ccc(-c4noc(C(F)(F)F)n4)cc3C2=O)[C@H](c2ccccc2)C1 [Example 13, tert-butyl (3R,4R)-4-(1-oxo-6-(5-(trifluoromethyl)-1,2,4-oxadiazol-3-yl)-1,3-dihydro-2H-isoindol-2-yl)-3-phenylpiperidine-1-carboxylate]
inhibition at 1 µM (HDAC6 enzyme): 101%
inhibition at 1 µM (HDAC1 enzyme): 53%
inhibition at 1 µM (HDAC9 enzyme): 84%

CC(C)(C)OC(=O)N1CC[C@H](N2Cc3ccc(-c4noc(C(F)(F)F)n4)cc3C2=O)[C@H](c2ccccc2)C1 [Example 14, tert-butyl (3R,4S)-4-(1-oxo-6-(5-(trifluoromethyl)-1,2,4-oxadiazol-3-yl)-1,3-dihydro-2H-isoindol-2-yl)-3-phenylpiperidine-1-carboxylate]
inhibition at 1 µM (HDAC6 enzyme): 68%
inhibition at 1 µM (HDAC1 enzyme): 0%
inhibition at 1 µM (HDAC9 enzyme): 48%

O=C1c2cc(-c3noc(C(F)(F)F)n3)ccc2CN1[C@@H]1CCNC[C@H]1c1ccccc1 [Example 15, 2-((3R,4R)-3-phenylpiperidin-4-yl)-6-(5-(trifluoromethyl)-1,2,4-oxadiazol-3-yl)isoindolin-1-one]
inhibition at 1 µM (HDAC6 enzyme): 98%
inhibition at 1 µM (HDAC1 enzyme): 97%
inhibition at 1 µM (HDAC9 enzyme): 99%

O=C1c2cc(-c3noc(C(F)(F)F)n3)ccc2CN1[C@H]1CCNC[C@H]1c1ccccc1 [Example 16, 2-((3R,4S)-3-phenylpiperidin-4-yl)-6-(5-(trifluoromethyl)-1,2,4-oxadiazol-3-yl)isoindolin-1-one]
inhibition at 1 µM (HDAC6 enzyme): 98%
inhibition at 1 µM (HDAC1 enzyme): 49%
inhibition at 1 µM (HDAC9 enzyme): 87%

CC(C)(C)OC(=O)N1CC[C@@H](N2Cc3ccc(-c4noc(C(F)(F)F)n4)cc3C2=O)[C@@H](c2ccccc2)C1 [Example 19, tert-butyl (3S,4R)-4-(1-oxo-6-(5-(trifluoromethyl)-1,2,4-oxadiazol-3-yl)-1,3-dihydro-2H-isoindol-2-yl)-3-phenylpiperidine-1-carboxylate]
inhibition at 1 µM (HDAC6 enzyme): 99%
inhibition at 1 µM (HDAC1 enzyme): 18%
inhibition at 1 µM (HDAC9 enzyme): 48%

CC(=O)N1CC[C@@H](N2Cc3ccc(-c4noc(C(F)(F)F)n4)cc3C2=O)[C@H](c2ccccc2)C1 [Example 20, 2-((3R,4R)-1-acetyl-3-phenylpiperidin-4-yl)-6-(5-(trifluoromethyl)-1,2,4-oxadiazol-3-yl)isoindolin-1-one]
inhibition at 1 µM (HDAC6 enzyme): 98%
inhibition at 1 µM (HDAC1 enzyme): 87%
inhibition at 1 µM (HDAC9 enzyme): 96%

CC(=O)N1CC[C@H](N2Cc3ccc(-c4noc(C(F)(F)F)n4)cc3C2=O)[C@H](c2ccccc2)C1 [Example 21, 2-((3R,4S)-1-acetyl-3-phenylpiperidin-4-yl)-6-(5-(trifluoromethyl)-1,2,4-oxadiazol-3-yl)isoindolin-1-one]
inhibition at 1 µM (HDAC6 enzyme): 93%
inhibition at 1 µM (HDAC1 enzyme): 8%
inhibition at 1 µM (HDAC9 enzyme): 80%

O=C1c2cc(-c3noc(C(F)(F)F)n3)ccc2CN1C1CCNC[C@@H]1c1ccccc1 (stereo partly drawn) [Example 22, 2-((3S,4R)-3-phenyipiperidin-4-yl)-6-(5-(trifluoromethyl)-1,2,4-oxadiazol-3-yl)isoindolin-1-one, hydrochloride]
inhibition at 1 µM (HDAC6 enzyme): 100%
inhibition at 1 µM (HDAC1 enzyme): 85%
inhibition at 1 µM (HDAC9 enzyme): 96%

CC(=O)N1CC[C@@H](N2Cc3ccc(-c4noc(C(F)(F)F)n4)cc3C2=O)[C@@H](c2ccccc2)C1 [Example 23, 2-((3S,4R)-1-acetyl-3-phenylpiperidin-4-yl)-6-(5-(trifluoromethyl)-1,2,4-oxadiazol-3-yl)isoindolin-1-one]
inhibition at 1 µM (HDAC6 enzyme): 98%
inhibition at 1 µM (HDAC1 enzyme): 58%
inhibition at 1 µM (HDAC9 enzyme): 84%
